Test results taken from paper PMC9030254, “Target Hopping from Protein Kinases to PXR: Identification of Small-Molecule Protein Kinase Inhibitors as Selective Modulators of Pregnane X Receptor from TüKIC Library” (Cells, 2022).

Tests used:
Assay in all cases: Kinase profiling
Assay type in all cases: biochemical
[1] = target: T1, CDK2/CycA2 (Homo sapiens, UniProt P24941)
T1 construct: purchased ProQinase (Freiburg, Germany)
Protocol: (§1) The analysis was performed by ProQinase (Freiburg, Germany).

[2] = target: T2, ASK1 (Homo sapiens, UniProt Q99683)
T2 construct: purchased ProQinase (Freiburg, Germany)
T2 sequence (Q99683 1-1374): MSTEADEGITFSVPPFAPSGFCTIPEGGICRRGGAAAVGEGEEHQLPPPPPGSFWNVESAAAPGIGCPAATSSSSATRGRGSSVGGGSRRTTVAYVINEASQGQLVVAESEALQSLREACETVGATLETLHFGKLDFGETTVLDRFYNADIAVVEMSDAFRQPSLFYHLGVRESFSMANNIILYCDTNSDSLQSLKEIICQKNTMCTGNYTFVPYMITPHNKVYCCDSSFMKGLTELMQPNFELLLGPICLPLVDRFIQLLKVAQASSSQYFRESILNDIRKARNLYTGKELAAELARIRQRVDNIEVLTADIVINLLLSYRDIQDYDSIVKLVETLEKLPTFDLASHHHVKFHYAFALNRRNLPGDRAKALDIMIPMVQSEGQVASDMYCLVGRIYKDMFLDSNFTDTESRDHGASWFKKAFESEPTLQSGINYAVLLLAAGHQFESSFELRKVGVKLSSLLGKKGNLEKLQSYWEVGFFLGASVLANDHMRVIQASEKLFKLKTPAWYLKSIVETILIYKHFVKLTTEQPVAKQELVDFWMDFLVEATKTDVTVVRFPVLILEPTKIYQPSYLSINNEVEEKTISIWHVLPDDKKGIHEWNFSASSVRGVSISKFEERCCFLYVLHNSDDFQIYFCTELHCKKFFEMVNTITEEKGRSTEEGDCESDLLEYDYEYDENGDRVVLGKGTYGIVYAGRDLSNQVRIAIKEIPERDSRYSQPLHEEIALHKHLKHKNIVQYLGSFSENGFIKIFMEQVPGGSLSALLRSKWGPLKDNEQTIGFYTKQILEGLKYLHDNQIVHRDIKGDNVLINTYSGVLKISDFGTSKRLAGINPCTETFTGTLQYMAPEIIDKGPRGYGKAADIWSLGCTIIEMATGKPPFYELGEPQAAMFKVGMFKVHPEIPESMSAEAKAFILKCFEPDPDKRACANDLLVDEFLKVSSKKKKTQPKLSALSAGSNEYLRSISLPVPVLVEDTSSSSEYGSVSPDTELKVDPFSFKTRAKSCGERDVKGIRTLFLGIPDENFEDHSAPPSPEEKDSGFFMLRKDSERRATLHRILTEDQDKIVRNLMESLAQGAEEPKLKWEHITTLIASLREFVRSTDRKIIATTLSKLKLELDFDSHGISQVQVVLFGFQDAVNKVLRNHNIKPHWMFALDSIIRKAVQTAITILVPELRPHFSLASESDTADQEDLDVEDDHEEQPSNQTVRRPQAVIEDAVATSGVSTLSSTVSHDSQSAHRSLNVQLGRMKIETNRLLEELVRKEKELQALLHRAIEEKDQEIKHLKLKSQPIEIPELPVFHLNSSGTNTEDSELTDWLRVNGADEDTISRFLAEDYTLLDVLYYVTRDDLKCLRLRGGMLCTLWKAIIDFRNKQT
Protocol: as §1

[3] = target: T3, RAF1 YDYD (Homo sapiens, UniProt P04049, Y340D/Y341D)
T3 construct: purchased ProQinase (Freiburg, Germany)
Protocol: as §1

[4] = target: T4, PKCbeta1 (Homo sapiens, UniProt P05771)
T4 construct: purchased ProQinase (Freiburg, Germany)
Protocol: as §1

[5] = target: T5, NEK6 (Homo sapiens, UniProt Q9HC98)
T5 construct: purchased ProQinase (Freiburg, Germany)
Protocol: as §1

[6] = target: T6, SGK1 (Homo sapiens, UniProt O00141)
T6 construct: purchased ProQinase (Freiburg, Germany)
T6 sequence (O00141 1-431): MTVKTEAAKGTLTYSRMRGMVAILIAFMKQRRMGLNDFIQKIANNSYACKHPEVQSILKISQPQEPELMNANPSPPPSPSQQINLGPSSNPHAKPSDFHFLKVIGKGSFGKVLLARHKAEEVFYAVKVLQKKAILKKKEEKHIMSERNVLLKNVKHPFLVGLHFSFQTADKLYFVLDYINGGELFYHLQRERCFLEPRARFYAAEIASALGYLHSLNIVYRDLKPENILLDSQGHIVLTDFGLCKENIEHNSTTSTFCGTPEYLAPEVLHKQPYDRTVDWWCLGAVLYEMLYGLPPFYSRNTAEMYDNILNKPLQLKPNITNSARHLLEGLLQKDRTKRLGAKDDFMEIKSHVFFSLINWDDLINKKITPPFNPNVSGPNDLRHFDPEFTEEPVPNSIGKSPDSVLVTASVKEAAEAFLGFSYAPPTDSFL
Protocol: as §1

[7] = target: T7, CDK3/CycE1 (Homo sapiens, UniProt Q00526)
T7 construct: purchased ProQinase (Freiburg, Germany)
Protocol: as §1

[8] = target: T8, HIPK3 (Homo sapiens, UniProt Q9H422)
T8 construct: purchased ProQinase (Freiburg, Germany)
Protocol: as §1

[9] = target: T9, BRK (Homo sapiens, UniProt Q13882)
T9 construct: purchased ProQinase (Freiburg, Germany)
Protocol: as §1

[10] = target: T10, MAPKAPK5 (Homo sapiens, UniProt Q8IW41)
T10 construct: purchased ProQinase (Freiburg, Germany)
T10 sequence (Q8IW41 1-473): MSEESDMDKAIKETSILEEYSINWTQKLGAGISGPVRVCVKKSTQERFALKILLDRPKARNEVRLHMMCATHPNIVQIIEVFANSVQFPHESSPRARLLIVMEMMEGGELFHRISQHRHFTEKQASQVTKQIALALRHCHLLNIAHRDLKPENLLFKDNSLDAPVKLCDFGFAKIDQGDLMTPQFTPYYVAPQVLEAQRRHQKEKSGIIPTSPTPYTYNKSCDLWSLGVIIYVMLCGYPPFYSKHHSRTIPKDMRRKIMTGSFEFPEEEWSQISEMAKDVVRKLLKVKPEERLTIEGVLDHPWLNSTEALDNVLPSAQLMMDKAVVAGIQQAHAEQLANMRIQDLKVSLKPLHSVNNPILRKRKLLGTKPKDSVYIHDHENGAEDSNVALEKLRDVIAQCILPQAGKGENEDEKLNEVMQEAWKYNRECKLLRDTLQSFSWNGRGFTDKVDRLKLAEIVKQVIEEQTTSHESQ
Protocol: as §1

T5 sequence (Q9HC98 whole entry): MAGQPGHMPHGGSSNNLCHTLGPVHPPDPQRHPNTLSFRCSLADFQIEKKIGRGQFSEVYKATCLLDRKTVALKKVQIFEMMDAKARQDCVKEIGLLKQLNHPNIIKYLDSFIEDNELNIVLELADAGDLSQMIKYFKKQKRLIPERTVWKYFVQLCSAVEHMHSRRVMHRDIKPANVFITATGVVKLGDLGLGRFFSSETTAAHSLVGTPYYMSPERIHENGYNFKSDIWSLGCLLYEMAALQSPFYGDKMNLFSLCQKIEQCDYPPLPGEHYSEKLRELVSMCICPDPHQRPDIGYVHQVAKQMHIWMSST
T4 sequence (P05771 whole entry): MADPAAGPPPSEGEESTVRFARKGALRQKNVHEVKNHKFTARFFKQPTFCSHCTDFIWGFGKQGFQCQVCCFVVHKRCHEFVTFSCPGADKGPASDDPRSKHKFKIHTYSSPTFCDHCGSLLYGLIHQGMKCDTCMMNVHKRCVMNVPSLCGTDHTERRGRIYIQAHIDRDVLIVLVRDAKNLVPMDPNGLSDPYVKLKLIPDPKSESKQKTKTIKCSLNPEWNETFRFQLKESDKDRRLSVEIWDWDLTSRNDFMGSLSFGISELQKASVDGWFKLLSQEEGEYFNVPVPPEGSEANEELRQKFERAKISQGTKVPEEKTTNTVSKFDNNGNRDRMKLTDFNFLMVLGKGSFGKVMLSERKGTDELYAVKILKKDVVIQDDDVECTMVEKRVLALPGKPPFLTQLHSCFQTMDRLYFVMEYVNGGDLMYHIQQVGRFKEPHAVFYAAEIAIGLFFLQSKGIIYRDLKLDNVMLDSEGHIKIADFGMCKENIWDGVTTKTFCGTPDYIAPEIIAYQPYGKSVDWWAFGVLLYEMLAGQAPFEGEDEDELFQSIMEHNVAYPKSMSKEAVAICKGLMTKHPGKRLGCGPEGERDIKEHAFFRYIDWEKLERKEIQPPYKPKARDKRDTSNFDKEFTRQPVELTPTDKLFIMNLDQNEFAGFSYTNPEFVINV
T8 sequence (Q9H422 whole entry): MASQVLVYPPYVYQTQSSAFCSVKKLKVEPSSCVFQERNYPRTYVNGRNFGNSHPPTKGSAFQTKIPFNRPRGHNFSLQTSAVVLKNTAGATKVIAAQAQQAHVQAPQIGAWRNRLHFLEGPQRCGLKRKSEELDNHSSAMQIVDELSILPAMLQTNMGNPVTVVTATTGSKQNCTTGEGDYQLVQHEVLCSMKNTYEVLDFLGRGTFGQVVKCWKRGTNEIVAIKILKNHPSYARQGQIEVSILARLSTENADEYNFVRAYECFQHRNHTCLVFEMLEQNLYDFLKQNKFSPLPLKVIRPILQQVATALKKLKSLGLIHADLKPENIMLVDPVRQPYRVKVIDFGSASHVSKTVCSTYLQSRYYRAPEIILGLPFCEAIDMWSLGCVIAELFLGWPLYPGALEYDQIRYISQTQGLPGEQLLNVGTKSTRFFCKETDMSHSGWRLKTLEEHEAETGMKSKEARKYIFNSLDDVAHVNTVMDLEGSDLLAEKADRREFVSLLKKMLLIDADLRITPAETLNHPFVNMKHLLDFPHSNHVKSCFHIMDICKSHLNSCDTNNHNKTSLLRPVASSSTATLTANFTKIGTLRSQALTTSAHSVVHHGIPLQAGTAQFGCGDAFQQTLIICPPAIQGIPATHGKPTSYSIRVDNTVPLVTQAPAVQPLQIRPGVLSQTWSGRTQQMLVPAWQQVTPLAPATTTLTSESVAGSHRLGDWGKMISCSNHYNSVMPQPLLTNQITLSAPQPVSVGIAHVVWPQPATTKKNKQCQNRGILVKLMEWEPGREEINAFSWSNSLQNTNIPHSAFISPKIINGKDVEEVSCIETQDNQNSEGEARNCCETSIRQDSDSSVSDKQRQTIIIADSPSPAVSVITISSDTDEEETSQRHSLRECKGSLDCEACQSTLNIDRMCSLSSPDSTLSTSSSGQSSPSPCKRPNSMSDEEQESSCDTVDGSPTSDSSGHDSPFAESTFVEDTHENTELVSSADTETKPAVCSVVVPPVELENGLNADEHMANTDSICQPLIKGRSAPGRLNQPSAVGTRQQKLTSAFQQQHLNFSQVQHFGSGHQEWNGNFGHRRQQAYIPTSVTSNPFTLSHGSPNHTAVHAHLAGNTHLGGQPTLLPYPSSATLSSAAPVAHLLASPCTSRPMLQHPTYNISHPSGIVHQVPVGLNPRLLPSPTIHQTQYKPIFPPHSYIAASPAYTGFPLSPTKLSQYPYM
T9 sequence (Q13882 whole entry): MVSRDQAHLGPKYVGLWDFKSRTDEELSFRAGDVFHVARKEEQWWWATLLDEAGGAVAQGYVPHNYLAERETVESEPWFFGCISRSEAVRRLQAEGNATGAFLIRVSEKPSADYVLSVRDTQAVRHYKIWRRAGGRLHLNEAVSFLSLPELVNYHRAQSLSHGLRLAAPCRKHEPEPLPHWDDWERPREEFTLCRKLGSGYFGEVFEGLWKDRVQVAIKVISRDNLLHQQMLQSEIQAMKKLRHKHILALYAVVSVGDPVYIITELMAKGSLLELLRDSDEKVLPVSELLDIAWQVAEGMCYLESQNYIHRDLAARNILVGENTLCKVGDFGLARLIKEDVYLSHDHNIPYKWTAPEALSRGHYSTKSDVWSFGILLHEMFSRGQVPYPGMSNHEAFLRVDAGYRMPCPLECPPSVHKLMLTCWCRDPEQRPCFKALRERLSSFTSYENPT
T7 sequence (Q00526 whole entry): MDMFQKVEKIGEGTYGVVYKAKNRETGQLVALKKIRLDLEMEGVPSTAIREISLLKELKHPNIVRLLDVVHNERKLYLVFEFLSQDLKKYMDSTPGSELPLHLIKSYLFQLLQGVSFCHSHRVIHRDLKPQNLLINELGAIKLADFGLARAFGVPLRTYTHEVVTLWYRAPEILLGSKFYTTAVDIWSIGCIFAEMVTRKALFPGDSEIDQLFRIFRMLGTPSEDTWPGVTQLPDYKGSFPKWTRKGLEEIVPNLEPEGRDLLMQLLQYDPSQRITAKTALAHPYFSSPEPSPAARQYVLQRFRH
T7 sequence (P24864 whole entry partner): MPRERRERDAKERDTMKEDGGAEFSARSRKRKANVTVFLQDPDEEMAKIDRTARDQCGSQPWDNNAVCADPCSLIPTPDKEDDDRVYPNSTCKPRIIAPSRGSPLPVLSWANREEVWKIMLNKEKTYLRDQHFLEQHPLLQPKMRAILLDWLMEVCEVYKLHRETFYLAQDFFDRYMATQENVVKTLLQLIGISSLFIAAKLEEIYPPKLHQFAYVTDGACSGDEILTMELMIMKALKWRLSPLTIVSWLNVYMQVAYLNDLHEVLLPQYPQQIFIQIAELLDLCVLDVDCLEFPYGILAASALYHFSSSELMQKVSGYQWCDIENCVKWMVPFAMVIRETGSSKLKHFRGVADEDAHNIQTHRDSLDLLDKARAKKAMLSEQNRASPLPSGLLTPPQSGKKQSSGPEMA

Compound | Residual activity ([1]; 1.0E-05 M) | Residual activity ([1]; 1.0E-06 M) | Residual activity ([2]; 1.0E-05 M) | Residual activity ([2]; 1.0E-06 M) | inhibition at 10 µM [3] [%] | Residual activity ([3]; 1.0E-05 M) | Residual activity ([3]; 1.0E-06 M) | Residual activity ([4]; 1.0E-05 M) | Residual activity ([4]; 1.0E-06 M) | Residual activity ([5]; 1.0E-05 M) | Residual activity ([5]; 1.0E-06 M) | Residual activity ([6]; 1.0E-05 M) | Residual activity ([6]; 1.0E-06 M) | Residual activity ([7]; 1.0E-05 M) | Residual activity ([7]; 1.0E-06 M) | Residual activity ([8]; 1.0E-05 M) | Residual activity ([8]; 1.0E-06 M) | Residual activity ([9]; 1.0E-05 M) | Residual activity ([9]; 1.0E-06 M) | Residual activity ([10]; 1.0E-05 M) | also measured
O=C(Nc1ccc(F)c(Nc2ccc3c(c2)CCCCC3=O)c1)c1cccc(F)c1 [Compound 109] | 94 % of control | 83 % of control | 88 % of control | 87 % of control | ≥ 50 | 12 % of control | 36 % of control | 87 % of control | 93 % of control | 92 % of control | 96 % of control | 97 % of control | 99 % of control | 82 % of control | 91 % of control | 90 % of control | 89 % of control | 84 % of control | 105 % of control | 97 % of control | inhibition at 1 µM ([3]; 1 µM): ≥ 50%; Residual activity ([10]; 1.0E-06 M): 101 % of control
O=C(Cc1ccccc1)Nc1ccc(F)c(Nc2ccc3c(c2)CCCCC3=O)c1 [Compound 100] | 106 % of control | 87 % of control | 85 % of control | 87 % of control | ≥ 50 | 3 % of control | 14 % of control | 92 % of control | 91 % of control | 87 % of control | 95 % of control | 85 % of control | 108 % of control | 80 % of control | 90 % of control | 87 % of control | 88 % of control | 106 % of control | 105 % of control | 89 % of control | inhibition of RAF1 ([3]; 1 µM): inhibited considerably; Residual activity ([10]; 1.0E-06 M): 127 % of control
